Data as given in patent US7005425B2, “Method for treating arrhythmias” (CV Therapeutics, Inc., priority 2002, dated 2006).

Key:
[1] = system: anesthetized guinea pigs; test: PR interval (AV nodal conduction) in anesthetized, paced guinea pigs; format: in vivo; settings: CVT-510 0.5 μg/kg iv bolus
Text: Male guinea pigs weighing 400–450 gm were obtained from Simonsen labs and housed in the institutional laboratory animal facility. Animals were anesthetized with isoflurane in the anesthetizing chamber. After determining (by toe pinch) that the animal is adequately anesthetized, the animals was intubated with an endotracheal tube and ventilated with isoflurane and oxygen mixture using anesthesia workstation. Using sterile equipment and aseptic technique, the right carotid artery was exposed and a catheter inserted for recording of blood pressure (BP). A quadripolar electrode catheter was introduced via the right jugular vein and positioned in the right atrium and ventricle for atrial and ventricular pacing. The hearts were paced at a constant rate (330–360 bpm) to eliminate the effect of heart rate variability between animals. Another catheter was inserted into the left jugular vein and positioned in the right atrium for the administration of drugs and saline. Subcutaneous needles were used as standard electrocardiographic leads to record the electrocardiogram (ECG). After completion of surgery and instrumentation, a 20 min equilibration period was allowed before beginning the experimental protocol. […] When the two agents were given in combination the PR interval was increased up to 15 msec. […] Esmolol was administered at three different infusion rates. […]

[2] = Plasma concentrations of CVT-510 in rats (LC-MS-MS); format: in vivo, Rats (Sprague Dawley); settings: subcutaneous osmotic pump, 20 μg/kg/hr
Text: A subgroup of animals was implanted with osmotic pumps containing CVT-510 for combination experiments. After 7 days or more of having been implanted with radio-telemetry transmitters for recording ECG (L-2), and verifying that the transmitters were functioning, each rat was implanted with an Alzet mini-osmotic pump. Under anesthesia (see above) and sterile conditions, one Alzet mini-osmotic pump, was implanted subcutaneously (SC) in the interscapular area of each rat. The osmotic pumps were filled with either vehicle or CVT-510 (to deliver a dose of 20 μg/kg/hr).
Carotid artery was catheterized to obtain serial blood samples for the analysis of CVT-510 plasma concentrations. Animals were anesthetized by peritoneal injection of a “cocktail” (1 ml/kg) containing Ketamine (75 mg/ml), Xylazine (5 mg/ml), and Acepromazine (1 mg/ml). After a 20–30 min. of induction of anesthesia, a midline incision was made in the neck region to expose the external carotid artery. […]
CVT-510 plasma level analysis was performed as follows. […] Concentration of CVT-510 in protein precipitation filtrates were analyzed by LC-MS-MS using a Waters Alliance 2690 HPLC system (Millford, Mass.) coupled to a Waters/Micromass Quattro Ultima triple quadrupole mass spectrometer (Millford, Mass.). […]

[3] = system: awake rats; test: Telemetry studies of heart rate in awake rats; format: in vivo, Rats (Sprague Dawley); settings: CVT-510 20 μg/kg ip alone
Protocol: Rats (Sprague Dawley) weighing 300–400 gms were purchased from Simonsen laboratories. CVT-3619 was dissolved in DMSO and further diluted in saline. CVT-510 was dissolved in saline. Ketamine was purchased from Fort Dodge Animal Health, Xylazine from Bayer and Acepromazine Maleate from Fermenta Animal Health Co. Metoprolol and propranolol were purchased from SIGMA. Esmolol was obtained from a local pharmacy.
For these studies, rats were instrumented with radiotelemetered transmitters (Data Sciences) at least 3 weeks prior to experimentation. Animals were anesthetized by peritoneal injection of a “cocktail” (1 ml/kg) containing Ketamine (75 mg/ml), Xylazine (5 mg/ml), and Acepromazine (1 mg/ml). After 20–30 minutes of induction of anesthesia, a midline laparotomy was performed. The transmitter for recordings of ECG, blood pressure and body temperature was placed in the abdominal cavity, and secured to the abdominal muscles. Two electrocardiographic leads were tunneled through the subcutaneous—one toward the upper left shoulder and the other to the right thigh, and secured with sutures. A fluid filled sensor catheter was inserted in the descending aorta above the iliac bifurcation for measurement of blood pressure. The tip of the telemetry catheter was located in the abdominal aorta just caudal to the renal arteries. Once the transmitter and leads were in place and determined to be functioning properly, the abdominal wall was sutured. After recovery from anesthesia, the rats were housed individually in cages placed on their respective receivers. The ECG, blood pressure and temperature were recorded and heart rate measured by a Dataquest ART Gold system (Version 2.2; Data Sciences Intl). The system consisted of a transmitter, i.e., biopotential sensor (Model TL11M2-C50-PXT), receivers (Model RPC-1), a consolidation matrix (BCM 100), a personal computer (Compaq DeskPro Series 3574) and Dataquest 4 software. Heart rate, blood pressure and temperature were measured at 5-minute intervals. Each recording lasted 10 seconds and all cardiac cycles within this period were averaged. Animals were given various drugs in a randomized manner after recording the baseline data for at least two hours.
A subgroup of animals was implanted with osmotic pumps containing CVT-510 for combination experiments. […]
The slowing of heart rate caused by each treatment was quantified by determining the area under the curve (AUC), using the trapezoidal method for calculations. Data used for analysis was the area under/over the curve calculated using change form baseline data (untreated animals). The data was analyzed for the magnitude as well as the duration of bradycardia caused by each treatment. […]

plasma concentration of CVT-510 [2]: 7.5 ± 1 ng/mL
SMILES: OC[C@H]1O[C@@H](n2cnc3c(N[C@@H]4CCOC4)ncnc32)[C@H](O)[C@@H]1O [CVT-510, 6-(3-(R)-aminotetrahydrofuranyl)purine riboside]
increase of PR interval (FIG. 9) [1]: 5 ms | effect on heart rate (FIG. 3) [3]: transiently lowers the heart rate below baseline levels | effect on heart rate (FIG. 4) [3]: slowed the heart rate in a dose dependent manner
